The values below come from patent US5578639A, “PLA2 inhibitors and their use for inhibition of intestinal cholesterol absorption” (Warner-Lambert Company, priority 1995, dated 1996).

For experiment [1], the system named is Caco-2 cells. Briefly: Caco-2 lipid absorption versus micellar phospholipid composition. The class given is cell-based, human. How it is done: Caco-2 cells were used as a tissue culture model of the human intestinal epithelium to compare the effects of phosphatidylcholine and lysophosphatidylcholine on lipid absorption and the subsequent re-esterification and secretion of micelle-derived lipids.
Caco-2 cell monolayers, grown on micropore membranes separating apical and basolateral culture solutions, were incubated with taurocholate, mixed-lipid micelles composed of 5 mM taurocholic acid, 300 μM monooleoylglycerol, 500 μM [^3 H]oleic acid, 100 μM [^14 C]cholesterol, and 200 μM phospholipid consisting of various proportions of 1-palmitoyl-2-oleoyl phosphatidylcholine and 1-palmitoyl lysophosphatidylcholine. The micelles were added to the apical side of the cell monolayers. Phospholipid-free micelles were also tested for comparison. At the end of 6 hours of incubation, the radiolabeled lipid content of the cells and in the basolateral media were determined. Phospholipid content strongly influenced the absorption and metabolism of cholesterol (FIGS. 1, 2) but had only minimal effects on fatty acid uptake and metabolism (FIG. 3). Caco-2 monolayers incubated with micelles containing only phosphatidylcholine as the phospholipid absorbed 65% less [^14 C]cholesterol than cell monolayers incubated with phospholipid-free micelles.

For experiment [2], the system named is intestinal lipid absorption. Put plainly: Lymph-fistula rats, diester and diether PC analogs. It counts as in vivo, rat. An excerpt:
The intestinal lipid absorption pathway was isolated in the rat by inserting an infusion cannula in the proximal duodenum and implanting a second cannula in the mesenteric lymph vessel to intercept the lipoprotein output from the intestine. This lymph-fistula rat model was used to investigate the effect of pancreatic PLA2 inhibition, in situ, on intestinal absorption of infused lipid emulsions. In a typical experiment, cannulae were implanted the day before the experimental infusion. Following surgery, the animals were infused (2.5 mL/hr) with isotonic saline containing dextrose to flush the GI tract and obtain basal levels of lymphatic lipid output. On the day of the experiment, infusion of the dextrose recovery solution was continued for 1 hour to collect a basal lymph fraction. At the start of the next hour, the intake of the duodenal infusion cannula was switched to a lipid emulsion of isotonic saline containing safflower oil (59 mM), cholesterol (5.2 mM), PC (3.3 mM) and taurocholic acid (1.9 mM). One hour lymph fractions were collected until the end of the experiment. The lipid content (mass) of lymph fractions was determined by HPLC with a mass-sensitive, evaporative light-scattering detector.
PC analogs in which the normal acyl chains are replaced by alkyl carbon chains linked to the glycerol backbone by ether bonds have physical-chemical properties similar to conventional diester PC molecules but are not hydrolyzable by PLA2. To determine the significance of micellar PC hydrolysis in intestinal lipid absorption, a comparison was made of the mesenteric lymph lipid output from rats infused with lipid microemulsions prepared with 1,2-dipalmitoyl PC (DPPC(ester)) or 1,2-dipalmityl PC (DPPC(ether)) as the PC constituent. […] The total lymphatic CE output over the 12-hour period of DPPC(ether) infusion was only 47% of total CE output obtained with the DPPC(ester) emulsion.

Experiment [3] concerns Caco-2 cells. Put plainly: Caco-2 phospholipase A2-dependent cholesterol absorption, time course. It counts as cell-based, human.
The test system of another experiment is cholesterol absorption. As to conditions: Rampone and Long 1977; cited from earlier work.
The test system of another experiment is plasma lipids. Put plainly: Plasma lipids in cholesterol-fed rats after oral PLA2 inhibitor. The class given is in vivo. As to conditions: 100 mg/kg oral gavage, about 8 hours after start of feeding. Here is the method: Ultimately, agents that inhibit the absorption of dietary cholesterol should suppress postprandial increases in plasma cholesterol. This was tested with several. PLA2 inhibitors in cholesterol-fed rats. The general protocol consisted of preparing a carboxymethyl cellulose/Tween 20 dispersion of the compound of interest and administering it at a dose of 100 mg/kg by oral gavage to rats previously trained to meal-feed. Immediately following administration of the inhibitor, the rats were fed a lipid-rich meal of chow supplemented with cholesterol, peanut oil, and cholic acid.

In a further experiment the target is T1, porcine pancreatic PLA2 (Sus scrofa, UniProt P00592).
T1 construct: purchased Sigma Chemical Company (St. Louis, Mo.); host or cells: porcine pancreas
Briefly: Fluorescence assay of porcine pancreatic PLA2 inhibition in vitro. It counts as biochemical. An excerpt: The IC50 values for inhibition of porcine pancreatic PLA2, in vitro, are included for comparison with the in vivo activities.
A sensitive fluorescence method was used to measure the activity of pancreatic phospholipase A2 (PLA2) in vitro. PLA2 hydrolyzes the ester bond linking fatty acids to the sn-2 position in glycerophospholipids. Several types of PLA2 exist, including those isolated from venoms, synovial fluid, platelets, immunoactive cell types and the pancreas. The pancreatic PLA2 was the subject of this experiment because of its fundamental role in promoting lipid absorption in the intestine.
PLA2 activity was detected by the loss of pyrene excimer fluorescence that occurs when (1-pyrenyl)decanoic acid is hydrolysed from the sn-2 position of 1,2-bis-(1-pyrenedecanoyl)sn-glycero-3-phosphocholine ((P10)2 PC) by the action of PLA2. The use of similar pyrene-labeled PC substrates to detect PLA2 activity has been described previously (Radvanyi F., Jordan L., Russo-Marie F., Bon C., "A sensitive and continuous fluorometric assay for phospholipase A2 using pyrene-labeled phospholipids in the presence of serum albumin." Anal. Biochem., 177:103-109 (1989)). The full photophysical basis for the assay is described elsewhere (Birks J. B., "Photophysics of Aromatic Molecules," Wiley Interscience, New York, pp 301-371 (1970)).
In brief, pyrene excimers are formed by the complexation of one pyrene moiety in the ground-state with one pyrene moiety in the excited state to form an excited-state dimer (excimer) which fluoresces at longer wavelengths (475 nm emission maximum) than the wavelength range in which excited-state pyrene monomers fluoresce (370-400 nm). Excimer formation is dependent on the concentration of pyrene moieties. (P10)2 PC emits excimer fluorescence almost exclusively due to the fixed juxtaposition of the pyrene chromophores. The substrate concentration is sufficiently dilute so that excimer formation between the products of PLA2 action, namely lysoPY10PC and the (1-pyrenyl)decanoic acid, is insignificant.
In general, this assay scheme should have been applicable to the study of any type of PLA2. However, since pancreatic PLA2 is unique from the other PLA2 's in that it operates almost exclusively against micellized PC, the PC substrate in this assay was micellized with 1 mM deoxycholic acid. The PC component of the micelles consisted of 5 μM (P10)2 PC substrate diluted with a 99-fold excess (495 μM) of 1-oleyl-2-palmityl phosphatidylcholine (OPPC). The OPPC was inert to PLA2 hydrolysis because it contained ether-linked fatty alkyl chains in place of the ester-linked fatty acyl chains of normal PC. OPPC was included to 1) dilute the micellar (P10)2 PC concentration thereby minimizing intermolecular excimer formation, and 2) preserve the integrity of the micelles against the action of PLA2 since nonspecific micelle disruption could lead to nonlinear kinetics and fluorescence changes independent of lipolysis.
Phospholipase A2 (porcine pancreas), bovine serum albumin (BSA) (fraction V, essentially fatty acid-free) and sodium deoxycholate were obtained from Sigma Chemical Company, (St. Louis, Mo.). 1-Oleyl-2-palmityl-DL-phosphatidylcholine (OPPC) was ordered from Serdary Research Laboratories, Inc. (London, Ont., Canada). 1,2-Bis-(1-pyrenedecanoyl)-sn-glycero-3-phosphatidylcholine ((P10)2 PC) was obtained from Molecular Probes, Inc. (Eugene, Oreg.).
HEPES buffer (SHE) contained 150 mM NaCl, 20 mM HEPES (N-[2-hydroxyethyl]piperazine-N'-[2-ethanesulfonic acid]) and 1 mM EDTA (ethylenediamine tetraacetic acid) at pH 8.0.
1 mM (P10)2 PC in chloroform was prepared by adding 1 mL chloroform to a vial containing 1 mg of (P10)2 PC, as shipped by Molecular Probes. The actual concentration was determined spectrophotometrically by diluting 10 μL of the chloroform solution in 2 mL of ethanol. The absorbance spectrum of the ethanol solution was measured between 380 nm to 280 nm (Beckman DU-64). […]

Another experiment deals with PLA2. The note with it: methyl-phosphatidic acid substrate; Jain et al. 1992; read-out: IC50 in "scooting-mode" assay; cited from earlier work.
The subject of the next experiment is serum cholesterol. As to conditions: neomycin 1.5-2 g/day; β-sitosterol 3-50 g/day; cited from earlier work.
Where [4] appears, read: porcine pancreatic PLA2, in vitro, read-out: In Vitro IC50 (porc. panc. PLA2).

Like-named read-outs stand apart in the source and are kept apart here.

T1 sequence (P00592 23-146): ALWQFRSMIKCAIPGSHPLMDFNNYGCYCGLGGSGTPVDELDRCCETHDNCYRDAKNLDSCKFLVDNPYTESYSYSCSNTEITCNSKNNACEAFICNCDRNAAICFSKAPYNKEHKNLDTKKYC

Take `CCCCCCCC/C=C\CCCCCCCC(=O)OC(COC(=O)CCCCCCCCCCCCCCC)COP(=O)([O-])OCC[N+](C)(C)C` (stereo not drawn) [phosphatidylcholine, 1-palmitoyl-2-oleoyl phosphatidylcholine]: the “esterification of micellar [14C]cholesterol” value in the experiment on Caco-2 cells [1] (FIG. 1C, micelles with 50% or more of choline lipid as PC) was “reduced to an even greater extent”. Also, in the experiment with Caco-2 cells [1] (Homo sapiens, Caco-2, 6 h, read-out: [14C]cholesterol absorbed, reduction vs. phospholipid-free micelles), the inhibition at 200 µM is 65%. In the experiment with Caco-2 cells [1] (PC-containing micelles), the “ACAT activity in cells” value is given as “diminished”.
For `CCCCCCCCCCCCCCCCOCC(COP(=O)([O-])OCC[N+](C)(C)C)OCCCCCCCCCCCCCCCC` (stereo not drawn) [DPPC(ether), 1,2-dipalmityl PC], in experiment [2] (12-hour infusion), the “total lymphatic CE output relative to DPPC(ester)” value is on record as 47%. The “time until lymphatic cholesteryl ester output rose above basal” value in experiment [2] (after initiation of lipid emulsion infusion) amounted to 8 h. Further, the “onset of rise in lymphatic TG and PC output” value in experiment [2] (following initiation of lipid infusion) is reported as “not delayed”. In experiment [2] (infusion of lipid emulsion), the “total lymphatic PC output relative to DPPC(ester)” value was 75% and the “total lymphatic TG output relative to DPPC(ester)” value was 71%.
As for `CCCCCCCCCCCCCCCC(=O)OCC(O)COP(=O)([O-])OCC[N+](C)(C)C` (stereo not drawn) [lysophosphatidylcholine, 1-palmitoyl lysophosphatidylcholine], the “[3H]oleate-labeled PC synthesis relative to phospholipid-free micelles” value in the experiment on Caco-2 cells [3] is “slight decrease”. Further, in the experiment with Caco-2 cells [1] (6 hours, lysophosphatidylcholine substituted for phosphatidylcholine), the “reversal of PC effect on cholesterol absorption” value is given as “reversed this effect, but only when the mole fraction of micellar lysophosphatidylcholine was greater than 50%”. For the same molecule, in the experiment with cholesterol absorption, the “inhibition of cholesterol absorption by intestinal segments” value is recorded as “no inhibition”.
The term IC50 denotes the concentration at which inhibition is half-maximal. `CCCCCCCC/C=C\CCCCCCCC(N)=O` [Compound E, (Z)-9-octadecen-amide, reference compound]: in the experiment with plasma lipids, the “% Change in plasma lipids vs. Control: HDL Chol.” value is 2%, the “% Change in plasma lipids vs. Control: TG” value (from here on “% Change … TG”) is recorded as -35%, the “% Change in plasma lipids vs. Control: Total Chol.” value (“% Change … Total Chol.” for short) is reported as -42% and the “% Change in plasma lipids vs. Control: non-HDL Chol.” value (“% Change … non-HDL Chol.” for short) is recorded as -56%. In addition, the IC50 at porcine pancreatic PLA2 (FIG. 12, (P10)2 PC substrate, read-out: IC50 in the fluorescence assay) was determined as 3 µM. Also, the IC50 at porcine pancreatic PLA2 (setting [4]) was determined as 2.4 µM. The 50% inhibitory concentration (IC50) with PLA2 was 0.1 µM.
Take `Cc1ccc(Nc2cccc(Cl)c2)c(/C=C/C(=O)O)c1` [Compound F, 2-(M-chloroanilino)-5-methyl-trans-cinnamic acid]: in the experiment on plasma lipids, the “% Change in plasma lipids vs. Control: HDL Chol.” value stood at 2%, the “% Change … TG” value is -5%, the “% Change … Total Chol.” value is on record as -15% and the “% Change … non-HDL Chol.” value is recorded as -20%. Moreover, the IC50 at porcine pancreatic PLA2 (setting [4]) came to 8.6 µM.
In the case of Neomycin, the “reductions in serum cholesterol levels” value in the experiment on serum cholesterol was “up to 25%”.
`CCCCCCCCCCCCCCCCOCC(COP(=O)([O-])OCC[N+](C)(C)C)OCCCCCCCCCCCCCCCC` (stereo not drawn) [nonhydrolyzable phospatidylcholine]: the “absorption of lipids into cells (figure legend)” value in experiment [2] (FIG. 9, nonhydrolyzable phosphatidylcholine) is “prevents absorption of lipids into cells”.
As for `CCCCCCC(c1ccc(O)c(C)c1)c1ccc(O)c(C)c1` [Compound A, 4,4'-heptylidenebis-2-methyl-phenol], in the experiment on plasma lipids, the “% Change in plasma lipids vs. Control: HDL Chol.” value stood at 1%, the “% Change … TG” value is on record as -11%, the “% Change … Total Chol.” value is reported as -24% and the “% Change … non-HDL Chol.” value is -32%. The IC50 on porcine pancreatic PLA2 (setting [4]) came to 2.2 µM.
For “1-[4,4-bis(4-fluorophenyl)butyl]-3-(3-methoxyphenyl)-3-methyl-pyrrolidine [Compound C]”, in the experiment with plasma lipids, the “% Change in plasma lipids vs. Control: HDL Chol.” value is recorded as 38%, the “% Change … Total Chol.” value is -30% and the “% Change … non-HDL Chol.” value was -49%. For the same molecule, the IC50 at porcine pancreatic PLA2 (setting [4]) was found to be 5.7 µM.
Regarding `Cc1ccc(Nc2ccccc2F)c(/C=C/C(=O)O)c1` [Compound G, 2-(O-fluoroanilino)-5-methyl-trans-cinnamic acid], in the experiment with plasma lipids, the “% Change in plasma lipids vs. Control: HDL Chol.” value amounted to 15%, the “% Change … TG” value was -24%, the “% Change … Total Chol.” value is -12% and the “% Change … non-HDL Chol.” value is -21%. Moreover, the IC50 on porcine pancreatic PLA2 (setting [4]) is 4.6 µM.
